Data as given in patent publication US20240132485A1, “HETEROCYCLIC CULLIN RING UBIQUITIN LIGASE COMPOUNDS AND USES THEREOF” (CEMM - FORSCHUNGSZENTRUM FÜR MOLEKULARE MEDIZIN GMBH, priority 2020, published 2024).

What was measured:
CCNK = assay: NanoLuc-CCNK degradation assay (HEK293T_Nluc_CCNK-tagged cells); type: cell-based; conditions: 4 h incubation, HEK293T_Nluc_CCNK-tagged cells; for DC50: read-out: NanoLuc-CCNK degradation DC50 Activity Class
Procedure: The assay helps to elucidate the mechanistic explanation of the cell killing effect of the compounds of the present invention. Cyclin K is fused to a nanoluciferase, light emission is measured as a proxy of Cyclin K abundance. Potency of Cyclin K degradation and cytotoxicity of KBM7 correlate extremely well, further supporting Cyclin K degradation being the main driver of the cell killing, as opposed to inhibition of CDK12 catalytic activity.
HEK293T_Nluc_CCNK-tagged cells were engineered by integrating a nanoluciferase tag at the N-terminus of the endogenous locus of CCNK using CRISPR-Cas9 technology. Briefly, 5.5 million HEK293T cells were co-transfected by PEI with a 1:1 ratio of cutting vector (sgRNA: […]) and repair template (4 μg total plasmid) as previously described (Brand and Winter, 2019). The repair sequence comprises a cassette of puromycinR-P2A-HA-Nluc-(G4S)3 (P2A: self-cleaving peptide 2A, HA: HA-tag, (G4S)3: flexible linker), surrounded by 20-nucleotide microhomologies matching the genomic locus. After 3 days of incubation, the recombinant population was selected by puromycin treatment (2 μg/ml, 5-day treatment). A monoclonal population was obtained by limiting dilution and cassette integration validated by Sanger sequencing.
HEK293T_Nluc_CCNK-tagged cells were seeded in a white opaque 384-well plate at a density of 8000 cells per well in duplicate, in full medium (Opti-MEM I+4% FBS+1% PS). Cells were treated with compounds in a 10-point titration (range: 0 to 10 μM, 1:4 dilution). After 4 h of incubation, Nano-Glo substrate (Promega), pre-diluted in serum-free medium (Opti-MEM I), was added to the cells (1:500 final dilution). The luminescence signal was directly measured using the multimode plate reader EnVision 2105 (Perkin Elmer).

[1] = system: KBM7 cells harboring a hypomorphic UBE2M mutation; assay: KBM7 CTG EC50 assay (UBE2M knock-out); type: cell-based; conditions: Homo sapiens, KBM-7; 72 h incubation, CellTiter-Glo; read-out: KBM7 CTG EC50 (UBE2M knock-out) Activity Class
Description: (§1) This is a cell viability assay to measure the desired therapeutic effect, i.e. killing of cancer cells. The UBE2M mutant cell line has impaired activity of the Cullin-RING ligase system due to a hypomorphic mutation in UBE2M, which is required for activation of these E3 ligases. By comparison with WT cells, it is possible to estimate the contribution of Cyclin K degradation (which is reduced in UBE2M mut cells) compared to kinase inhibition of CDK12 (which is unaffected in UBE2M mut cells). Since the UBE2M mutation only reduces CRL function without fully abrogating it, this assay may slightly underestimate the effect of degradation because, at high compound concentrations, degradation may still be observed.
(§2) KBM7 cells (wild-type or harboring α hypomorphic UBE2M mutation (Mayor-Ruiz et al., 2019)) were seeded in a white opaque 384-well plate at a density of 1000 cells per well in duplicate, in full medium (IMDM+10% FBS+1% penicillin-streptomycin). Cells were treated with compounds in a 10-point titration with a dilution factor of 1:4 (range: 0 to 20 μM). After 72 h of incubation, the cell viability was determined using the CellTiter-Glo® 2.0 reactant (Promega), pre-diluted 1:4 in mQ water. The luminescence signal was measured using the multimode plate reader EnVision 2105 (Perkin Elmer).

[2] = target: T1, DDB1-CDK12/Cyclin K ternary complex (Homo sapiens, UniProt Q16531+Q9NYV4); assay: NanoBRET fold-change assay (HaloTag_CDK12 / NanoLuc_DDB1 in HEK293T); type: cell-based; conditions: 10 μM compound, 10 minutes
T1 construct: expressed in transfected cells; host or cells: HEK293T wildtype cells, transient PEI transfection
T1 sequence (Q9NYV4 whole entry): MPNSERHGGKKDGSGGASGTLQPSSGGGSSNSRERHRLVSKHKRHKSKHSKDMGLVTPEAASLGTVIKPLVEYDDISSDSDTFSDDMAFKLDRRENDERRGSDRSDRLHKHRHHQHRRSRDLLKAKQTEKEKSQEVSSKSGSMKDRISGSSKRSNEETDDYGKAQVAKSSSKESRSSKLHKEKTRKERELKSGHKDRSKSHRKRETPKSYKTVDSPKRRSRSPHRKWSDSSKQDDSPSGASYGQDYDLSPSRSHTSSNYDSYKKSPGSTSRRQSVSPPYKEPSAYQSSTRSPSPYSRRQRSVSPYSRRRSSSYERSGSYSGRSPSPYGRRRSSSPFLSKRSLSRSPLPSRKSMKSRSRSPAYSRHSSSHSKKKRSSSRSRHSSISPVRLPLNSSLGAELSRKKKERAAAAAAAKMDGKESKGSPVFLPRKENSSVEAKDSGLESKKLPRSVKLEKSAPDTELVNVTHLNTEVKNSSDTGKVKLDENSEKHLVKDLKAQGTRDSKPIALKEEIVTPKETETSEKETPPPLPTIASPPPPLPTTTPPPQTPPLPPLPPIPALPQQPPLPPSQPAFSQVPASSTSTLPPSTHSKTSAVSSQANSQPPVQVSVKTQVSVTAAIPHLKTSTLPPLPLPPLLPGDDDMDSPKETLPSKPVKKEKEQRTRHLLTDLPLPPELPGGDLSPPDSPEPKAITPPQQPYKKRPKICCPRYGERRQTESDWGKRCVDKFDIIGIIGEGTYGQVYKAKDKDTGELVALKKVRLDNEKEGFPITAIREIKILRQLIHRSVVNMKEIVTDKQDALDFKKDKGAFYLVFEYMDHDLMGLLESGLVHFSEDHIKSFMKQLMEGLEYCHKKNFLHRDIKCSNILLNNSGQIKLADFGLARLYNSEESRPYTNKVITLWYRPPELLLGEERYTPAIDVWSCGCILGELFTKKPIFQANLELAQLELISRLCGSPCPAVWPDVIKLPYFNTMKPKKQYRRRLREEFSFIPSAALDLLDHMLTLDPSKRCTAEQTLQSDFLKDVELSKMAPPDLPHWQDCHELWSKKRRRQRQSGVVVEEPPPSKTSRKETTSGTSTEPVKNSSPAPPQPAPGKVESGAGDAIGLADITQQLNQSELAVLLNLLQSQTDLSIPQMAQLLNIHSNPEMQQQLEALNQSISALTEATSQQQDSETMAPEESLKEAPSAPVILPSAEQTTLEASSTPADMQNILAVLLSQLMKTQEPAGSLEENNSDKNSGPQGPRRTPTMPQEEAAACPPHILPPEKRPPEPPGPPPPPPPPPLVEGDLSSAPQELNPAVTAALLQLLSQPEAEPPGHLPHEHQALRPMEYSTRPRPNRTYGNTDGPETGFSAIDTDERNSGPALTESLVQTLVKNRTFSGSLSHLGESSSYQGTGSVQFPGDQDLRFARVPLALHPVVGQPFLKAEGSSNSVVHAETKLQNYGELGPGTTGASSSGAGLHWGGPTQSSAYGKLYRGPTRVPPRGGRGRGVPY
T1 sequence (Q16531 whole entry): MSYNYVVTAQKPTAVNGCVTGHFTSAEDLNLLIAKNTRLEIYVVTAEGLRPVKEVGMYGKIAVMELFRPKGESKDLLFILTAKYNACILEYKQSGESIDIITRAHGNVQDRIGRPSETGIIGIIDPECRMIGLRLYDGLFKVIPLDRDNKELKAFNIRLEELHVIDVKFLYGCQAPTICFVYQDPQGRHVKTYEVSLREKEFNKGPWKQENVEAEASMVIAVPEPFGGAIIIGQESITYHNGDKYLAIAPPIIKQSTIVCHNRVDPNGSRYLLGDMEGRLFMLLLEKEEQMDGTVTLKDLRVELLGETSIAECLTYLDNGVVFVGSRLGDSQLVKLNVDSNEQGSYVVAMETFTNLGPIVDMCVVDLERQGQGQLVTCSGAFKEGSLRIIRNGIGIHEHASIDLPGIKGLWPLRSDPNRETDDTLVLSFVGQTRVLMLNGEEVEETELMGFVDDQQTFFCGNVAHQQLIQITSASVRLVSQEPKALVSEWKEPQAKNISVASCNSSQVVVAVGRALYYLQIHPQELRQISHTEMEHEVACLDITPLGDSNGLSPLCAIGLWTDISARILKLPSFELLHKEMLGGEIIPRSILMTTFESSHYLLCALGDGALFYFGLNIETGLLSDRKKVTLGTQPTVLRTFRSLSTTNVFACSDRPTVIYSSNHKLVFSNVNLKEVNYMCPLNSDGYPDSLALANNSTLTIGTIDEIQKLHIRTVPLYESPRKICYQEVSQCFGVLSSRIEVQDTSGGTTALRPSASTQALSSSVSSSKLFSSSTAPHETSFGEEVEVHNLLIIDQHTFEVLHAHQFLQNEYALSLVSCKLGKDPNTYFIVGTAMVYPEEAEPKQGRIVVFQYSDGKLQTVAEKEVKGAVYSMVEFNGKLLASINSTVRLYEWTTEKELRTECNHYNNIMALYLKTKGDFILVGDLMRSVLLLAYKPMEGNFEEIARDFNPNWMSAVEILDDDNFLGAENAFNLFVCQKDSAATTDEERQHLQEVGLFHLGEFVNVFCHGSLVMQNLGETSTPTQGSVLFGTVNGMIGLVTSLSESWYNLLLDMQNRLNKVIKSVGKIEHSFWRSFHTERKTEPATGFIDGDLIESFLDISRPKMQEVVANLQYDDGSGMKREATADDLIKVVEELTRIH
T1 sequence (O75909 whole entry partner): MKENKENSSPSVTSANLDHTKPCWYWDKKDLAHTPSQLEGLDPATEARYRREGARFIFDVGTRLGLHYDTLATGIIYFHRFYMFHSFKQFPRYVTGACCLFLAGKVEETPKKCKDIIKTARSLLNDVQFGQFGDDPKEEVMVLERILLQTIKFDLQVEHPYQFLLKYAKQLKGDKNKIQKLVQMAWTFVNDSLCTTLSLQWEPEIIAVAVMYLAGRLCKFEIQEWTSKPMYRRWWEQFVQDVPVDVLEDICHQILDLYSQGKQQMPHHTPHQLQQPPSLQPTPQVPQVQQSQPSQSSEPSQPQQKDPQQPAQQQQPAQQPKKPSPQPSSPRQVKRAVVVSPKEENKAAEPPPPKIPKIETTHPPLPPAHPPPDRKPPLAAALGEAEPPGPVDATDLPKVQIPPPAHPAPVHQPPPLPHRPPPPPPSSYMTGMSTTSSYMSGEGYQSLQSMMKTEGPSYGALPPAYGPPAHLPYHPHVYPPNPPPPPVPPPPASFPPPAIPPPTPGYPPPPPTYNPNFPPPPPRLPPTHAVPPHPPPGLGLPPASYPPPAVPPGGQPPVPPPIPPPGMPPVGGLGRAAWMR
Procedure: This assay measures the interaction/recruitment of CDK12/Cyclin K to DDB1, mechanistically validating the molecular glue pharmacology.
HEK293T wildtype cells are seeded 800 k cells/well (DMEM+10% FBS+1% PS) in a 6-well plate and allowed to attach for ˜7 hours followed by a transient transfection of 1.5 μg HaloTag_CDK12 Plasmid [Table 1] and 0.15 μg NanoLuc_DDB1 plasmid [Table 1] per well using PEI. Cells are incubated at 37° C., 5% CO2, harvested after 24 hours and resuspended in assay media (Opti-MEM Reduced serum media, no phenol red, 4% FBS, 1% PS). Cells are adjusted to 2.3×10^5 cells/ml and treated with HaloTag 618 Ligand at 100 nM or DMSO. 8000 cells are seeded per well in triplicates per compound in a white-walled 384-well plate, one negative control treated with DMSO instead of HaloTag 618 Ligand is seeded in triplicates and the 384-well plate is incubated at 37° C., 5% CO2 overnight. Compound stock solutions are prepared in Opti-MEM−/− (Opti-MEM I Reduced serum media, no phenol red) at 8× and used to treat the cells at a final concentration of 1× at 10 μM. Cells and compounds are incubated for 10 minutes at room temperature followed by addition of NanoBRET Nano-Glo substrate following manufacturer's protocols. The plate is shaken for 30 sec followed by immediate measurement of donor emission (NanoBRET Blue at 460 nm) and acceptor emission (BRET Deep Red at 647 nm) for 0.5 s.

KBM7 cells (wild-type) = assay: KBM7 CTG EC50 assay (UBE2M wild-type); type: cell-based, human; conditions: for EC50: Homo sapiens, KBM-7, 72 h incubation, CellTiter-Glo, read-out: KBM7 CTG EC50 (UBE2M wild-type) Activity Class; for Ratio UBE2M WT to KO: ratio of anti-proliferative activity in KBM7 wild-type versus UBE2M knock-out cells (fold)
Description: as §1, §2

NanoLuc-CCNK degradation DC50 Activity Class (CCNK)	NanoBRET fold-change Activity Class [2]	DC50 (CCNK) [µM]	SMILES	EC50 [1] [µM]	EC50 (KBM7 cells (wild-type)) [µM]	Ratio UBE2M WT to KO (KBM7 cells (wild-type))
–	C (2-3 fold increase)	> 10	O=C(Cc1cn2cc(F)ccc2n1)Nc1cc(Br)[nH]n1 [Example 3-58, N-(5-bromo-1H-pyrazol-3-yl)-2-(6-fluoroimidazo[1,2-a]pyridin-2-yl)acetamide]	> 10	≤ 0.25	>10
–	B (3-4 fold increase)	> 10	O=C(Nc1ncc(C(F)(F)F)s1)C1CC(=O)N(c2ccc(F)c(F)c2)C1 (stereo not shown) [Example 3-23, 1-(3,4-difluorophenyl)-5-oxo-N-(5-(trifluoromethyl)thiazol-2-yl)pyrrolidine-3-carboxamide]	> 10	≤ 0.25	>10
–	C (2-3 fold increase)	> 10	O=C(Cc1ccc2cnccc2c1)Nc1ncc(C(F)(F)F)s1 [Example 3-31, 2-(isoquinolin-6-yl)-N-(5-(trifluoromethyl)thiazol-2-yl)acetamide]	> 10	1 to 10	>4
C (1.0 μM≤DC50<0.50 μM)	B (3-4 fold increase)	–	Cc1ccc2c(CC(=O)Nc3ccc(Cl)cn3)coc2c1C [Example 3-55, N-(5-chloropyridin-2-yl)-2-(6,7-dimethylbenzofuran-3-yl)acetamide]	1 to 10	0.25 to 0.5	9.2
–	B (3-4 fold increase)	> 10	O=C(Cc1cccc2ncccc12)Nc1ncc(C(F)(F)F)s1 [Example 3-13, 2-(quinolin-5-yl)-N-(5-(trifluoromethyl)thiazol-2-yl)acetamide]	> 10	1 to 10	>4

Second part, the molecule before the results:

SMILES	NanoLuc-CCNK degradation DC50 Activity Class (CCNK)	NanoBRET fold-change Activity Class [2]	DC50 (CCNK) [µM]	EC50 [1] [µM]	EC50 (KBM7 cells (wild-type)) [µM]	Ratio UBE2M WT to KO (KBM7 cells (wild-type))
O=C(Nc1ncc(C(F)(F)F)s1)C1CC(=O)N(c2ccc(Cl)cc2)C1 (stereo not shown) [Example 3-18, 1-(4-chlorophenyl)-5-oxo-N-(5-(trifluoromethyl)thiazol-2-yl)pyrrolidine-3-carboxamide]	D (10 μM≤DC50<1.0 μM)	C (2-3 fold increase)	–	> 10	≤ 0.25	>10
O=C(Nc1ncc(C(F)(F)F)s1)C1CC(=O)N(c2ccc(F)cc2)C1 (stereo not shown) [Example 3-26, 1-(4-fluorophenyl)-5-oxo-N-(5-(trifluoromethyl)thiazol-2-yl)pyrrolidine-3-carboxamide]	–	C (2-3 fold increase)	> 10	> 10	1 to 10	>5
Cc1c(CC(=O)Nc2ncc(C(F)(F)F)s2)sc2ccccc12 [Example 3-12, 2-(3-methylbenzo[b]thiophen-2-yl)-N-(5-(trifluoromethyl)thiazol-2-yl)acetamide]	–	D (1-2 fold increase)	> 10	> 10	> 10	>10
Cc1cccn2c(CC(=O)Nc3ncc(C(F)(F)F)s3)cnc12 [Example 3-6, 2-(8-methylimidazo[1,2-a]pyridin-3-yl)-N-(5-(trifluoromethyl)thiazol-2-yl)acetamide]	D (10 μM≤DC50<1.0 μM)	C (2-3 fold increase)	–	1 to 10	≤ 0.25	129.4
O=C(Cc1cc2ccccc2s1)Nc1ncc(C(F)(F)F)s1 [Example 3-10, 2-(benzo[b]thiophen-2-yl)-N-(5-(trifluoromethyl)thiazol-2-yl)acetamide]	–	C (2-3 fold increase)	≤ 0.1	1 to 10	≤ 0.25	23.6
O=C(Cc1ccc2ccncc2c1)Nc1ncc(C(F)(F)F)s1 [Example 3-32, 2-(isoquinolin-7-yl)-N-(5-(trifluoromethyl)thiazol-2-yl)acetamide]	–	B (3-4 fold increase)	≤ 0.1	1 to 10	≤ 0.25	115.9
O=C(Nc1ncc(C(F)(F)F)s1)C1CC(=O)N(c2cc(F)cc(F)c2)C1 (stereo not shown) [Example 3-21, 1-(3,5-difluorophenyl)-5-oxo-N-(5-(trifluoromethyl)thiazol-2-yl)pyrrolidine-3-carboxamide]	B (0.50 μM≤DC50<0.10 μM)	B (3-4 fold increase)	–	1 to 10	≤ 0.25	44.5
Cc1ccc2c(CC(=O)Nc3cc(C4CC4)[nH]n3)coc2c1C [Example 3-46, N-(5-cyclopropyl-1H-pyrazol-3-yl)-2-(6,7-dimethylbenzofuran-3-yl)acetamide]	D (10 μM≤DC50<1.0 μM)	B (3-4 fold increase)	–	> 10	0.5 to 1	>10
CC(C)c1ccc(NC(=O)Cc2cn3cc(F)ccc3n2)nc1 [Example 3-61, 2-(6-fluoroimidazo[1,2-a]pyridin-2-yl)-N-(5-isopropylpyridin-2-yl)acetamide]	B (0.50 μM≤DC50<0.10 μM)	A (greater than 4-fold increase)	–	> 10	≤ 0.25	>20
Cc1ccc2c(CC(=O)Nc3ncc(C(C)C)s3)coc2c1C [Example 3-2, 2-(6,7-dimethylbenzofuran-3-yl)-N-(5-isopropylthiazol-2-yl)acetamide]	–	B (3-4 fold increase)	≤ 0.1	0.5 to 1	≤ 0.25	12.7
Cc1ccc2c(ccn2CC(=O)Nc2ncc(C(F)(F)F)s2)c1 [Example 3-37, 2-(5-methyl-1H-indol-1-yl)-N-(5-(trifluoromethyl)thiazol-2-yl)acetamide]	–	C (2-3 fold increase)	> 10	> 10	1 to 10	>4
O=C(Cc1cncc2ccccc12)Nc1ncc(C(F)(F)F)s1 [Example 3-34, 2-(isoquinolin-4-yl)-N-(5-(trifluoromethyl)thiazol-2-yl)acetamide]	–	C (2-3 fold increase)	> 10	> 10	1 to 10	>3
